Data reported in ChEMBL document CHEMBL3763148, “Synthesis, structure elucidation, DNA-PK and PI3K and anti-cancer activity of 8- and 6-aryl-substituted-1-3-benzoxazines” (Eur J Med Chem, 2016).

Columns and labels:
[1] = biological target: T1, Phosphatidylinositol 4,5-bisphosphate 3-kinase catalytic subunit delta isoform (Homo sapiens, UniProt O00329); experiment: Inhibition of PI3Kdelta (unknown origin) incubated for 60 mins by kinase-glo luminescence assay
T1 sequence (O00329 whole entry): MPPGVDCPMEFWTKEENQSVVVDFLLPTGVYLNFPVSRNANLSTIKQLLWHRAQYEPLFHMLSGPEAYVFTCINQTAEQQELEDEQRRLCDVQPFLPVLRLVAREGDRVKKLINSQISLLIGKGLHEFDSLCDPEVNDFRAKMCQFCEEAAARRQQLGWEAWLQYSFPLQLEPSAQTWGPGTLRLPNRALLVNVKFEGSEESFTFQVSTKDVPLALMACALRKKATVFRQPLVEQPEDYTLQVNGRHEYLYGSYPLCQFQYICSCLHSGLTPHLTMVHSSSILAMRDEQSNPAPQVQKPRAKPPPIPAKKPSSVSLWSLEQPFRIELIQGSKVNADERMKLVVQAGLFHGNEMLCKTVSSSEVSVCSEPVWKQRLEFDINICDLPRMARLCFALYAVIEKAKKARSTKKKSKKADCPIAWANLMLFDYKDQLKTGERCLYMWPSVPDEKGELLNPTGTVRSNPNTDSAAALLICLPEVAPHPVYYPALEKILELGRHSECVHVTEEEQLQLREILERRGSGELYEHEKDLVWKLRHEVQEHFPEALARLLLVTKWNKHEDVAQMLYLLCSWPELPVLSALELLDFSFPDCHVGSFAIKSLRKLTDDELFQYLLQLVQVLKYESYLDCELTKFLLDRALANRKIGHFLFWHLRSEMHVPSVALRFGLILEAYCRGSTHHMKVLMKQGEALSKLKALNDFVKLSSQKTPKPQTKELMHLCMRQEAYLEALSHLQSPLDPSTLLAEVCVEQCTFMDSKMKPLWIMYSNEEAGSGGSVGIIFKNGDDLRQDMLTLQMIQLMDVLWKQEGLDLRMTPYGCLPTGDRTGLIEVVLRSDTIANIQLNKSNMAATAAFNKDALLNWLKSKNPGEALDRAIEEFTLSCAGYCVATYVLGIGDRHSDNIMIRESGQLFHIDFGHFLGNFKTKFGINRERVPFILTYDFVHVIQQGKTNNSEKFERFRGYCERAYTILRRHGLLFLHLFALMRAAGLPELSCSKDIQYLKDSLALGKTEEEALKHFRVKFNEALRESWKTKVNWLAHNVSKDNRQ

[2] = biological target: Phosphatidylinositol 4,5-bisphosphate 3-kinase catalytic subunit gamma isoform (Homo sapiens) (UniProt P48736); experiment: Inhibition of PI3Kgamma (unknown origin) at 10 uM incubated for 60 mins by kinase-glo luminescence assay
MDA-MB-435 = experiment: Cytotoxicity against human MDA-MB-435 cells assessed as cell growth inhibition at 10 uM after 48 hrs by SRB assay relative to control; format: functional; settings: MDA-MB-435, 48 h, read-out: GI
A498 = experiment: Cytotoxicity against human A498 cells assessed as cell growth inhibition at 10 uM after 48 hrs by SRB assay relative to control; format: functional; settings: A498, 48 h, read-out: GI
[3] = Cytotoxicity against human HCC2998 cells assessed as cell growth inhibition at 10 uM after 48 hrs by SRB assay relative to control; format: functional; settings: HCC 2998, 48 h, read-out: GI
[4] = Cytotoxicity against human Hs 578T cells assessed as cell growth inhibition at 10 uM after 48 hrs by SRB assay relative to control; format: functional; settings: read-out: GI
SN12C = experiment: Cytotoxicity against human SN12C cells assessed as cell growth inhibition at 10 uM after 48 hrs by SRB assay relative to control; format: functional; settings: read-out: GI
[5] = Cytotoxicity against human DU145 cells assessed as cell growth inhibition at 10 uM after 48 hrs by SRB assay relative to control; format: functional; settings: DU-145, 48 h, read-out: GI
786-0 = experiment: Cytotoxicity against human 786-0 cells assessed as cell growth inhibition at 10 uM after 48 hrs by SRB assay relative to control; format: functional; settings: 786-0, 48 h, read-out: GI
NCI-H322M = experiment: Cytotoxicity against human NCI-H322M cells assessed as cell growth inhibition at 10 uM after 48 hrs by SRB assay relative to control; format: functional; settings: read-out: GI
A549 = experiment: Cytotoxicity against human A549 cells assessed as cell growth inhibition at 10 uM after 48 hrs by SRB assay relative to control; format: functional; settings: A549, 48 h, read-out: GI
[6] = Cytotoxicity against human OVCAR3 cells assessed as cell growth inhibition at 10 uM after 48 hrs by SRB assay relative to control; format: functional; settings: OVCAR-3, 48 h, read-out: GI
[7] = Cytotoxicity against human UACC62 cells assessed as cell growth inhibition at 10 uM after 48 hrs by SRB assay relative to control; format: functional; settings: UACC-62, 48 h, read-out: GI
SK-MEL-2 = experiment: Cytotoxicity against human SK-MEL-2 cells assessed as cell growth inhibition at 10 uM after 48 hrs by SRB assay relative to control; format: functional; settings: SK-MEL-2, 48 h, read-out: GI
NCI-H522 = experiment: Cytotoxicity against human NCI-H522 cells assessed as cell growth inhibition at 10 uM after 48 hrs by SRB assay relative to control; format: functional; settings: NCI-H522, 48 h, read-out: GI
[8] = Cytotoxicity against human SNB19 cells assessed as cell growth inhibition at 10 uM after 48 hrs by SRB assay relative to control; format: functional; settings: SNB-19, 48 h, read-out: GI
NCI-H460 = experiment: Cytotoxicity against human NCI-H460 cells assessed as cell growth inhibition at 10 uM after 48 hrs by SRB assay relative to control; format: functional; settings: NCI-H460, 48 h, read-out: GI
MDA-MB-468 = experiment: Cytotoxicity against human MDA-MB-468 cells assessed as cell growth inhibition at 10 uM after 48 hrs by SRB assay relative to control; format: functional; settings: MDA-MB-468, 48 h, read-out: GI
T47D = experiment: Cytotoxicity against human T47D cells assessed as cell growth inhibition at 10 uM after 48 hrs by SRB assay relative to control; format: functional; settings: read-out: GI
Malme-3M = experiment: Cytotoxicity against human MALME-3M cells assessed as cell growth inhibition at 10 uM after 48 hrs by SRB assay relative to control; format: functional; settings: read-out: GI
[9] = Cytotoxicity against human COLO205 cells assessed as cell growth inhibition at 10 uM after 48 hrs by SRB assay relative to control; format: functional; settings: COLO 205, 48 h, read-out: GI
[10] = Cytotoxicity against human BT549 cells assessed as cell growth inhibition at 10 uM after 48 hrs by SRB assay relative to control; format: functional; settings: BT-549, 48 h, read-out: GI
ACHN = experiment: Cytotoxicity against human ACHN cells assessed as cell growth inhibition at 10 uM after 48 hrs by SRB assay relative to control; format: functional; settings: read-out: GI
[11] = Cytotoxicity against human UO31 cells assessed as cell growth inhibition at 10 uM after 48 hrs by SRB assay relative to control; format: functional; settings: UO-31, 48 h, read-out: GI

Phosphatidylinositol 4,5-bisphosphate 3-kinase catalytic subunit gamma isoform (Homo sapiens), sequence (P48736 whole entry, looked up, canonical isoform): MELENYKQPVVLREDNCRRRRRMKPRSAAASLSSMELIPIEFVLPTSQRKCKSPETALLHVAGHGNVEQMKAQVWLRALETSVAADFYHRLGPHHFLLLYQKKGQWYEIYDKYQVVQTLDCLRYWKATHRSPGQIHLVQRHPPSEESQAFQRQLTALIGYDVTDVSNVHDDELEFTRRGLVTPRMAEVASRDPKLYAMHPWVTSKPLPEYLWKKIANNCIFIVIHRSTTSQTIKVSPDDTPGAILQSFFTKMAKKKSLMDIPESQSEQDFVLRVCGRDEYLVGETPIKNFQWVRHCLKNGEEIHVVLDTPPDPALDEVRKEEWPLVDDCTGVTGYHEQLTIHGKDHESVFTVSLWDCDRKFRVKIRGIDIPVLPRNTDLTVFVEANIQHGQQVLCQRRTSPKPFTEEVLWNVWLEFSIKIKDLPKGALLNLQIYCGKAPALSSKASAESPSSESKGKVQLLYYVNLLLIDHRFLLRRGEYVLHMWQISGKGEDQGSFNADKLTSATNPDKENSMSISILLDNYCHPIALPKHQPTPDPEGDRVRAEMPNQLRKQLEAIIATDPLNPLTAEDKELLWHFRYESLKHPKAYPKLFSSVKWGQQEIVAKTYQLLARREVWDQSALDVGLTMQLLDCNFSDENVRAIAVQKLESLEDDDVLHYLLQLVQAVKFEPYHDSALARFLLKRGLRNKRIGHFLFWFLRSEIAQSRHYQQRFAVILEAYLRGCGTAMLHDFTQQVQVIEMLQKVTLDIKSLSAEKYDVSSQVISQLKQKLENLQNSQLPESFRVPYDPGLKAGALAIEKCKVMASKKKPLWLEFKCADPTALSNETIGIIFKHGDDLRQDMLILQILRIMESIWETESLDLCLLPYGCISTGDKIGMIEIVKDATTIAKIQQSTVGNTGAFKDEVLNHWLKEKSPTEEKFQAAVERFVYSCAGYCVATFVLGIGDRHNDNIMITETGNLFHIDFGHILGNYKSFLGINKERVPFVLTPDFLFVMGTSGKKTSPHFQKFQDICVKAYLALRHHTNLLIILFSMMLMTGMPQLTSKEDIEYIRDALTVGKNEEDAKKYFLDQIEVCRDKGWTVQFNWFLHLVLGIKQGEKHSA

| SMILES | inhibition [2] [%] | inhibition of growth at 10 µM (MDA-MB-435) [%] | inhibition of growth at 10 µM (A498) [%] | inhibition of growth at 10 µM [3] [%] | inhibition of growth at 10 µM [4] [%] | inhibition of growth at 10 µM (SN12C) [%] | inhibition of growth at 10 µM [5] [%] | inhibition of growth at 10 µM (786-0) [%] | inhibition of growth at 10 µM (NCI-H322M) [%] | inhibition of growth at 10 µM (A549) [%] | inhibition of growth at 10 µM [6] [%] | inhibition of growth at 10 µM [7] [%] | inhibition of growth at 10 µM (SK-MEL-2) [%] | inhibition of growth at 10 µM (NCI-H522) [%] | inhibition of growth at 10 µM [8] [%] | inhibition of growth at 10 µM (NCI-H460) [%] | inhibition of growth at 10 µM (MDA-MB-468) [%] | inhibition of growth at 10 µM (T47D) [%] | inhibition of growth at 10 µM (Malme-3M) [%] | inhibition of growth at 10 µM [9] [%] | also measured |
| --- | --- | --- | --- | --- | --- | --- | --- | --- | --- | --- | --- | --- | --- | --- | --- | --- | --- | --- | --- | --- | --- |
| O=c1nc(N2CCOCC2)oc2c(-c3ccsc3)cccc12 | 29 | 3.77 | 37.2 | -2.71 | 9.35 | 9.14 | 0.16 | 11.9 | 16 | 3.82 | 11.8 | 31.4 | -2.53 | 0.83 | -3.77 | -4.22 | 15 | 26.5 | 9.75 | -5.35 | IC50 [1]: 4.8 µM; inhibition of growth at 10 µM [10]: 4.54%; inhibition of growth at 10 µM (ACHN): 2.44%; inhibition of growth at 10 µM [11]: 23.4% |
| O=c1nc(N2CCOCC2)oc2ccc(-c3cccc4c3sc3ccccc34)cc12 | 0 | 1.87 | 37.4 | -17.8 | 1.62 | 6.33 | -3.21 | 5.42 | -0.24 | 5.3 | -11.1 | 12.6 | 1.3 | -2.38 | 4.68 | -1.46 | 20 | 16.6 | 4.63 | -2.96 | inhibition of growth at 10 µM [10]: 4.62%; inhibition of growth at 10 µM (ACHN): -1.95%; inhibition of growth at 10 µM [11]: 1.02% |
| NC(=O)c1ccc(-c2cccc3c(=O)nc(N4CCOCC4)oc23)cc1 | 10 | -6.9 | 1.82 | -1.23 | 2.8 | -3.74 | -3.19 | -0.31 | 7.01 | -0.08 | 0.57 | 7.72 | -2.17 | 10.4 | 0.88 | -5.06 | -5.19 | 12.2 | 14.6 | -3.93 | IC50 [1]: > 10 µM; inhibition of growth at 10 µM [10]: 1.94%; inhibition of growth at 10 µM (ACHN): -0.43%; inhibition of growth at 10 µM [11]: 10.8% |
| O=c1nc(N2CCOCC2)oc2c(-c3cccc4c3sc3ccccc34)cccc12 | 27 | 4.77 | 46.4 | 3.55 | 24.8 | 18 | 5.8 | 27.7 | 18.3 | 22.5 | 13.7 | 45.6 | 9.49 | 28.6 | 18.5 | 4.79 | 26.2 | 42.8 | 12.4 | 3.36 | IC50 [1]: 8.5 µM; inhibition of growth at 10 µM [10]: 13.6%; inhibition of growth at 10 µM (ACHN): 22.3%; inhibition of growth at 10 µM [11]: 52% |
| COc1ccc(-c2cccc3c(=O)nc(N4CCOCC4)oc23)cc1 | 7 | 1.03 | 27.1 | -5.73 | 11.1 | 8.75 | 1.58 | 9.72 | 3.11 | 5.88 | 5.94 | 19.3 | -9.8 | 12.8 | -0.25 | -5.69 | 6.21 | 38.5 | -4.08 | -2.6 | IC50 [1]: 2.7 µM; inhibition of growth at 10 µM [10]: 4.99%; inhibition of growth at 10 µM (ACHN): 6.19%; inhibition of growth at 10 µM [11]: 17.4% |
